# Experimental data from BindingDB's records for doi:10.1073/pnas.83.22.8784 (The Oregon Health Sciences University, 1986).
# pKi: −log10 of the molar value.
# Experiments:
# [1] = target: 5-hydroxytryptamine receptor 2A (Rattus norvegicus, UniProt P14842)
# [2] = target: T1, Alpha-2C adrenergic receptor (Rattus norvegicus, UniProt P22086)
# T1 sequence (P22086 whole entry): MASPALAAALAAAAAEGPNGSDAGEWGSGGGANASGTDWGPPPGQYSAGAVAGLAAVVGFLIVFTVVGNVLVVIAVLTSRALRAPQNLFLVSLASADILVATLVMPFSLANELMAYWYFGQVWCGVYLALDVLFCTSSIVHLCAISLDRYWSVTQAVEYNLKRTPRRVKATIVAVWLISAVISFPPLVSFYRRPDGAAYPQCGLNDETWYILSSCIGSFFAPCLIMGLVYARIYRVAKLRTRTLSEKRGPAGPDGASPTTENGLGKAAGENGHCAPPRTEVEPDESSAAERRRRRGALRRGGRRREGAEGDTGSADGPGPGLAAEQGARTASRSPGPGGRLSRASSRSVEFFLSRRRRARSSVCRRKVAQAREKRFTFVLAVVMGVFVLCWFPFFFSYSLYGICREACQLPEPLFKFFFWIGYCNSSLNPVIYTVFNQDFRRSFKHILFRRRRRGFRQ
# [3] = target: T2, Alpha-1A adrenergic receptor (Rattus norvegicus, UniProt P43140)
# T2 sequence (P43140 whole entry): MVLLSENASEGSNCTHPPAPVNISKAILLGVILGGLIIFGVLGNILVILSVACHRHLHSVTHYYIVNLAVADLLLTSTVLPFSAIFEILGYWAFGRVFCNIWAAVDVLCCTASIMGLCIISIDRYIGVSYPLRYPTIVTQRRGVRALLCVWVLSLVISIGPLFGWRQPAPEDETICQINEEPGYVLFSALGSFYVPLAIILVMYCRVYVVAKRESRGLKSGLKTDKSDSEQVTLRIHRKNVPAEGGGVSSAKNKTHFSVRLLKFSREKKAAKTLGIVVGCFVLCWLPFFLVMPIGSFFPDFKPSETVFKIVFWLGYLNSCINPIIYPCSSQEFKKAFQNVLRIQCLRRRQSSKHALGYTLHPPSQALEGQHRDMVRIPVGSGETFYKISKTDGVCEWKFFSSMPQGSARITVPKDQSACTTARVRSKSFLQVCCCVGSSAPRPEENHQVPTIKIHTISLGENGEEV
# 5-hydroxytryptamine receptor 2A, sequence (P14842 whole entry): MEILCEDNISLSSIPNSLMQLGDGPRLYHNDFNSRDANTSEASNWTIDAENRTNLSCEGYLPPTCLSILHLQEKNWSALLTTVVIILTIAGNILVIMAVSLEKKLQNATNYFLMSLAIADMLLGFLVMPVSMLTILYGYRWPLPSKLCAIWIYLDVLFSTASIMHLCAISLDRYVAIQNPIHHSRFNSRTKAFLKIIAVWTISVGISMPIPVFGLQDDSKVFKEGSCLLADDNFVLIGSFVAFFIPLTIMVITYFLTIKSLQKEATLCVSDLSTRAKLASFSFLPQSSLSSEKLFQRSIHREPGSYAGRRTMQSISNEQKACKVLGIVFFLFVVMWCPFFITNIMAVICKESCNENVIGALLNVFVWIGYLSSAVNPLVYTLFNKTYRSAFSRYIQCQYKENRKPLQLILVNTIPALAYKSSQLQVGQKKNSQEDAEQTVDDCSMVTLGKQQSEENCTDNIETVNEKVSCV
pKi [1],pKi [2],pKi [3],SMILES
,6.53,7.14,"O=C(c1ccc(F)cc1)C1CCN(CCn2c(=O)[nH]c3ccccc3c2=O)CC1 [3-(2-{4-[(4-fluorophenyl)carbonyl]piperidin-1-yl}ethyl)-1,2,3,4-tetrahydroquinazoline-2,4-dione]"
8.22,6.55,6.59,Cc1nc2ccccn2c(=O)c1CCN1CCC(=C(c2ccc(F)cc2)c2ccc(F)cc2)CC1 [NSC_159037]
8.35,6.38,6.92,Cn1c(=O)c2c(ncn2CCN2CCC(C(=O)c3ccc(F)cc3)CC2)n(C)c1=O [NSC_71255]
,6.20,6.72,Cc1nc2sccn2c(=O)c1CCN1CCC(=C(c2ccc(F)cc2)c2ccc(F)cc2)CC1
,7.12,8.73,O=C(c1ccc(F)cc1)C1CCN(CCCCn2c(=O)[nH]c3ccccc3c2=O)CC1 [CAS_87051-46-5]

SMILES,pKi [1],pKi [2],pKi [3]
NC(N)=NN=Cc1c(Cl)cccc1Cl [Guanabenz],6.70,< 5.00,
